Tested on: A2058 cells isolated from tumor-bearing mice
Experiment: Chemosensitization of cultured A2058 cells isolated from xenografts
Format: cell-based, human
Settings: A2058; 72 h-cultured; PL 1 μM, Chemo 0.25 μM PAC.PBP; Pter = in vivo pretreatment
Method: FIG. 5. Chemosensitization effect of GSH depletion (A) or sod1-AS (B) in melanoma cells isolated from Pter-treated mice. Melanoma cells were cultured as in FIG. 1C. PAC.PBP (100 ng/ml) was added to the culture flasks 24 h after seeding. […] Data are mean values±SD for 5-6 different experiments (*p<0.01, comparing all experimental conditions vs controls).
FIGS. 18-25. Effect of piperlongumine and I-BET762, as GSH depleting and chemosensitizing agents, in in vitro growing human melanoma, pancreatic, breast, lung, liver, prostate, ovarian, and colorectal cancer cells. Cancer cells, isolated from Pter-treated tumor-bearing mice, were cultured as indicated under Methods. Chemotherapy (0.25 μM PAC.PBP in A2058 melanoma and MDA-MB-231 breast carcinoma cells; 0.125 μM PAC.PBP and 25 μM GTB in AsPC-1 pancreatic cancer cells; 1 μM VRB and 15 μM cisPt in A459 lung carcinoma cells; 0.15 μM DXR in HepG2 hepatocellular carcinoma cells; 15 nM DCT in PC-3 prostate carcinoma cells; 0.15 μM PAC.PBP and 25 μM CarboPt in SK-OV-3 ovarian carcinoma cells; 3 μM 5-FU, 1 μM FA and 0.6 μM IRI in HT-29 colorectal carcinoma cells) was added to the cultured flasks 24 h after seeding. PL (1 μM in A2058 and AsPC-1 cells; 0.5 μM in A549 and HT-29 cells; 0.2 μM in HepG2, PC-3, and SK-OV-3 cells; 0.1 μM in MDA-MB-231 cells) or I-BET762 (0.5 μM in HT-29 cells; 0.2 μM in A2058, AsPC-1, HepG2, PC-3, and SK-OV-3 cells; 0.1 μM in A549 and MDA-MB-231 cells) were added 6 h later. Data are mean values±SD for 4-5 different experiments per cell line (*p<0.05 and **p<0.01, comparing all experimental conditions versus control. PL, piperlongumine; PAC.PBP, paclitaxel protein-bound particles; GTB, gemcitabine; DXR, doxorubicin; VRB, vinorelbin; CisPt, cisplatin; docetaxel, DCT; CarboPt, carboplatin; 5-FU, 5-fluoracil; FA, folinic acid; IRI, irinotecan; 5-FU+FA+IRI=FOLFIRI).
Human A2058, MeWo and MelJuso melanoma cells, and mouse AtT-20 pituitary corticotroph tumor cells were from the American Type Culture Collection (ATCC). Human HEMa-LP epidermal melanocytes were from Life Technologies (Grand Island, N.Y.). Human MDA-MB-231 (triple negative: ER−, PR−, HER2−) and MCF-7 (ER+, PR+, HER2−) breast adenocarcinoma, A549 lung adenocarcinoma (NSCLC), HepG2 hepatocellular carcinoma, LNCaP (AR+) and PC-3 (AR−) prostate adenocarcinoma, SK-OV-3 epithelial ovarian carcinoma, and HT-29 and Caco-2 colorectal carcinoma cells were from the American Type Culture Collection. Cells were grown in Dulbecco's modified Eagle's medium (DMEM) (Invitrogen, San Diego, Calif.), pH 7.4, supplemented with 10% heat-inactivated FCS (Biochrom KG, Berlin, Germany), 100 units/ml penicillin and 100 μg/ml streptomycin. Cells were plated, at a density of 20,000 cells/cm2, and cultured at 37° C. in a humidified atmosphere with 5% CO2. Cells were harvested by incubation for 5 min with 0.05% (w/v) trypsin (Sigma, St. Louis, Mo.) in PBS (10 mM sodium phosphate, 4 mM KCl, 137 mM NaCl), pH 7.4, containing 0.3 mM EDTA, followed by the addition of 10% FCS to inactivate the trypsin. Cell numbers were determined using a Coulter Counter (Coulter Electronic Inc., Miami, Fla.). Cells were allowed to attach for 12 h before any treatment addition. Cellular viability was assessed as previously reported (Mena, S. et al. Clin Cancer Res 13, 2658-2666 (2007)), by measuring trypan blue exclusion and leakage of lactate dehydrogenase activity.
Isolation of Tumor Cells from Mouse Xenografts Using Enzymatic Digestion and a double Ficoll gradient. […]

## COc1cc(/C=C/c2ccc(O)cc2)cc(OC)c1 [Pter, trans-3,5-dimethoxy-4′-hydroxystilbene]
  Viable cells: 1015 ± 144 ×10^6

Reference: patent US11179348B2, “Combination comprising pterostilbene for the treatment of cancer” (FUNDACIÓN UNIVERSIDAD CATÓLICA DE VALENCIA SAN VICENTE …, priority 2015, dated 2021)
